Reference: PubChem BioAssay (NCI)
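Five concentrations, 48 hours, 96-well plates. Definition used: TGI = concentration required for complete inhibition of growth.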

Assays:
Experiment in all cases: NCI tumour cell line growth inhibition, 48 h
[1] = system: HOP-18 NSCLC
[2] = system: KM20L2 colon
[3] = system: LXFL 529 NSCLC
[4] = system: M19-MEL melanoma
[5] = system: XF 498 CNS
[6] = system: RXF-631 renal
[7] = system: P388 leukemia
[8] = system: P388/ADR leukemia
[9] = system: SN12K1 renal

| Compound | TGI [1] | TGI [2] | TGI [3] | TGI [4] | TGI [5] | TGI [6] | TGI [7] | TGI [8] | TGI [9] |
| --- | --- | --- | --- | --- | --- | --- | --- | --- | --- |
| CN(C)CCNC(=O)c1cccc2nc3c4ccccc4c4ccccc4c3nc12 | 20.1 µM | 10.3 µM | 10.1 µM | 3.4 µM | 9.06 µM | – | – | – | – |
| COc1cc2c(cc1OC)C(Cl)C(c1ccc(Cl)cc1)=C2Cl (stereo unspecified) | 31.7 µM | 39.5 µM | 17.5 µM | 41.3 µM | 9.09 µM | 51.7 µM | – | – | – |
| Oc1cc(O)cc(/C=C/c2ccc(O)c(O)c2)c1 | > 100 µM | 86.1 µM | – | 41.7 µM | – | – | > 66.9 µM | > 67.5 µM | 18.3 µM |
| COc1cc2ccc1-c1cc(ccc1O)CC1c3cc4c(cc3CCN1C)Oc1c(OC)cc3c(c1O4)C(C2)N(C)CC3 (stereo unspecified) | – | 2.97 µM | 3.23 µM | 3.36 µM | 3.44 µM | – | – | – | – |
| Cc1c2ccnc(-c3ccccc3)c2cc2c1[nH]c1ccccc12 | 8.67 µM | 6.8 µM | – | 8.48 µM | – | – | 5.46 µM | 6.08 µM | 5.04 µM |
| CN(C)c1ccc(C2CC(=O)C(C#N)=C(c3ccccc3)NN2C)cc1 (stereo unspecified) | > 100 µM | – | > 100 µM | – | 38.3 µM | > 100 µM | – | – | – |
